Earlier results as cited in patent US20040167415A1, “Method and system for prevention of radiocontrast nephropathy” (PLC Systems Inc., priority 2003, published 2004).

Assays:
[1] = 70 kg adult patient; according to the manufacturer Nycomed Amersham
[2] = in 12 hours; healthy people; Edelson et al, J Pharm Sci 1984

total volume of distribution [1]: approximately 18 liters
contrast eliminated from the body in urine by kidneys [2]: 90%
SMILES: CC(=O)N(CC(O)CO)c1c(I)c(C(=O)NCC(O)CO)c(I)c(C(=O)NCC(O)CO)c1I (centres unmarked) [iohexol]
